Data: patent US20080027042A1, “Novel Aminopyridine Derivatives Having Aurora a Selective Inhibitory Action” (priority 2004, published 2008)
Structures can show the parent of a compound that is named as a salt.

Columns and labels:
Aurora B = biological target: T1, Aurora B (Homo sapiens, UniProt Q96GD4); assay: Aurora B inhibitory action (33P-ATP kinase assay, Kemptide substrate); type: biochemical; settings: 100 μM ATP, 30° C., 20 minutes
T1 construct: histidine tag (N); made in house; host or cells: Escherichia coli BL21-CodonPlus(DE3)-RIL
Description: Aurora B Inhibitory Action
(1) Purification of Aurora B
(§1) cDNA of Aurora B having histidine tag fused at the amino terminal was integrated into an expression vector, which was then highly expressed in Escherichia coli BL21-CodonPlus(DE3)-RIL cells. The Escherichia coli cells were recovered and solubilized, and then the histidine-tagged […] protein was adsorbed onto a nickel chelate column and eluted from the column with imidazole. The active fraction was desalted with a desalting column to give a pure enzyme.
(2) Measurement of Activity of Aurora B
For measurement of the activity of Aurora B, the substrate used was Kemptide (Lys-Arg-Arg-Ala-Ser-Lys-Gly) (SEQ.ED.NO.: 1), a synthetic peptide purchased from Sigma-Aldrich, Inc. [Certificate of analysis (Upstate, Inc.)].
Reaction was conducted by a partial modification of the method of activity measurement for Aurora A. The amount of the reaction liquid was 21.1 μL, and the composition of the reaction buffer (R2 buffer) was 50 mM Tris-hydrochloride buffer (pH 7.4)/15 mM magnesium acetate/0.2 mM ethylenediamine-N,N,N′,N′-tetraacetate (EDTA). To this, purified Aurora B, 100 μM of a substrate peptide, 100 μM of unlabeled adenosine triphosphate (ATP) and 1 μCi of [γ-^33P] labeled ATP (2,500 Ci/mmole or more) were added, and the mixture was reacted at 30° C. for 20 minutes. Then, 10 μL of 350 mM phosphate buffer was added to the reaction system to stop the reaction. The substrate peptide was adsorbed on a P81 paper filter 96-well plate and then washed with 130 mM phosphate buffer for several times. The radiation activity of the peptide was measured with a liquid scintillation counter. The [γ-^33P] labeled ATP was purchased from Amersham Biosciences Co., Ltd.
(§2) The compound to be tested was added to the reaction system such that a dilution series of the compound in dimethylsulfoxide was first prepared, and 1.1 μL of this solution was added. A control was provided by adding 1.1 μL of DMSO to the reaction system.

Aurora A = biological target: T2, Aurora A (Homo sapiens, UniProt O14965); assay: Aurora A inhibitory action (33P-ATP kinase assay, Kemptide substrate); type: biochemical; settings: 20 μM ATP, 30° C., 20 minutes
T2 construct: histidine tag (N); made in house; host or cells: Escherichia coli BL21-CodonPlus(DE3)-RIL
T2 sequence (O14965 1-403): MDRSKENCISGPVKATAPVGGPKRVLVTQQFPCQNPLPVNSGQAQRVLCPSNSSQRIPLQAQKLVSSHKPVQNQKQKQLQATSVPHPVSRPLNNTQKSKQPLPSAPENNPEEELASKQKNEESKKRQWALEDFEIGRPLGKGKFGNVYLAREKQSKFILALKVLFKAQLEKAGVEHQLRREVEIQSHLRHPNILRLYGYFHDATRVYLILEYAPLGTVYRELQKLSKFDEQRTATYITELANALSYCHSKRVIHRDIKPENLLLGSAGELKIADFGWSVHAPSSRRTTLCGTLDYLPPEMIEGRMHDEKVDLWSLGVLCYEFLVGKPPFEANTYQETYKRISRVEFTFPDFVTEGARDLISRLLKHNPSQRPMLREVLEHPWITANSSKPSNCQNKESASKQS
Description: Aurora A Inhibitory Action
(1) Purification of Aurora A
as §1, with “A” for “B”, “BL2 1-CodonPlus(DE3)-RIL” for “BL21-CodonPlus(DE3)-RIL”
(2) Measurement of Activity of Aurora A
For measurement of the activity of Aurora A, the substrate used was Kemptide (Lys-Arg-Arg-Ala-Ser-Lys-Gly) (SEQ.ID.NO.: 1), a synthetic peptide purchased from Sigma-Aldrich, Inc. [Certificate of analysis (Upstate, Inc.)].
Reaction was conducted by a partial modification of a method by Upstate, Inc. [Kinase Profiler™ Assay Protocols]. The amount of the reaction liquid was 21.1 μL, and the composition of the reaction buffer (R2 buffer) was 50 mM Tris-hydrochloride buffer (pH 7.4)/15 mM magnesium acetate/0.2 mM ethylenediamine-N,N,N′,N′-tetraacetate (EDTA). To this, purified Aurora A, 100 μM of a substrate peptide, 20 μM of unlabeled adenosine triphosphate (ATP) and 0.5 μCi of [γ-^33P] labeled ATP (2,500 Ci/mmole or more) were added, and the mixture was reacted at 30° C. for 20 minutes. Then, 10 μL of 350 mM phosphate buffer was added to the reaction system to stop the reaction. The substrate peptide was adsorbed on a P81 paper filter 96-well plate and then washed with 130 mM phosphate buffer for several times. The radiation activity of the peptide was measured with a liquid scintillation counter. The [γ-^33P] labeled ATP was purchased from Amersham Biosciences Co., Ltd.
as §2

T1 sequence (Q96GD4 whole entry): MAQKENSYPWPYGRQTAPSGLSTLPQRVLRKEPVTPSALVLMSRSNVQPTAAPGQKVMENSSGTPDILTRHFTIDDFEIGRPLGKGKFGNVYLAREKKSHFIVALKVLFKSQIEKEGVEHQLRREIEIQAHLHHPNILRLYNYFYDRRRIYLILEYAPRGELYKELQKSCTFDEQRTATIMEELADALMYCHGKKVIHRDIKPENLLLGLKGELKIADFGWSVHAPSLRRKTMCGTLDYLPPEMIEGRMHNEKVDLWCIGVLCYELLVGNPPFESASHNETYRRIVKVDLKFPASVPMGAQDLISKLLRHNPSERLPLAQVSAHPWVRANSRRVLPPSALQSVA

Row | Molecule | IC50 (Aurora B) [nM] | IC50 (Aurora A) [nM]
1 | 6-((4-(3-(dimethylamino)benzoyl)piperazin-1-yl)methyl)-N-(5-chlorothiazol-2-yl)pyridin-2-amine [Example 73] | 410 | 17
2 | O=C(c1cccc(F)c1Cl)N1CCN(Cc2cccc(Nc3nccs3)n2)CC1 [Example 9, 6-((4-(2-chloro-3-fluorobenzoyl)piperazin-1-yl)methyl)-N-thiazol-2-ylpyridin-2-amine] | 760 | 1.3
3 | O=C(c1cccc(Cl)c1F)N1C[C@@H]2C[C@H]1CN2Cc1cccc(Nc2nccs2)n1 [Example 10, 6-(((1S,4S)-5-(3-chloro-2-fluorobenzoyl)-2,5-diazabicyclo[2.2.1]hept-2-yl)methyl)-N-thiazol-2-ylpyridin-2-amine trifluoroacetate] | 92 | 0.49
4 | O=C(c1cccc(Cl)c1F)N1C[C@H]2C[C@@H]1CN2Cc1cccc(Nc2nccs2)n1 [Example 11, 6-(((1R,4R)-5-(3-chloro-2-fluorobenzoyl)-2,5-diazabicyclo[2.2.1]hept-2-yl)methyl)-N-thiazol-2-ylpyridin-2-amine] | 570 | 1.3
5 | O=C(c1cccc(Br)c1F)N1CCN(Cc2cccc(Nc3nccs3)n2)CC1 [Example 12, 6-((4-(3-bromo-2-fluorobenzoyl)piperazin-1-yl)methyl)-N-thiazol-2-ylpyridin-2-amine trifluioroacetate] | 400 | 0.52
6 | O=C(c1cccc(C(F)(F)F)c1F)N1CCN(Cc2cccc(Nc3nccs3)n2)CC1 [Example 13, 6-((4-(2-fluoro-3-(trifluoromethyl)benzoyl)piperazin-1-yl)methyl)-N-thiazol-2-ylpyridin-2-amine trifluoroacetate] | 380 | 0.89
7 | O=C(c1cccc(C(F)F)c1F)N1CCN(Cc2cccc(Nc3nccs3)n2)CC1 [Example 15, 6-((4-(3-(difluoromethyl)-2-fluorobenzoyl)piperazin-1-yl)methyl)-N-thiazol-2-ylpyridin-2-amine] | 1000 | 1.4
8 | O=C(c1cccc(Cl)c1F)N1CCN(Cc2cccc(Nc3cc[nH]n3)n2)CC1 [Example 16, 6-((4-(3-chloro-2-fluorobenzoyl)piperazin-1-yl)methyl)-N-1H-pyrazol-3-ylpyridin-2-amine] | 1300 | 1.8
9 | O=C(c1cccc(C(F)(F)F)c1Cl)N1CCN(Cc2cccc(Nc3cc[nH]n3)n2)CC1 [Example 18, 6-((4-(2-chloro-3-(trifluoromethyl)benzoyl)piperazin-1-yl)methyl)-N-1H-pyrazol-3-ylpyridin-2-amine trifluoroacetate] | 830 | 1.8
10 | O=C(c1cccc(Br)c1F)N1CCN(Cc2cccc(Nc3cc[nH]n3)n2)CC1 [Example 20, 6-((4-(3-bromo-2-fluorobenzoyl)piperazin-1-yl)methyl)-N-1H-pyrazol-3-ylpyridin-2-amine trifluoroacetate] | 1800 | 1.1
11 | O=C(Cc1ccc(Cl)c(Cl)c1)N1CCN(Cc2cccc(Nc3cc[nH]n3)n2)CC1 [Example 21, 6-((4-((3,4-dichlorophenyl)acetyl)piperazin-1-yl)methyl)-N-1H-pyrazol-3-ylpyridin-2-amine trifluoroacetate] | 6800 | 16
12 | O=C(c1cccc(Cl)c1F)N1C[C@@H]2C[C@H]1CN2Cc1cccc(Nc2cc[nH]n2)n1 [Example 23, 6-(((1 S,4S)-5-(3-chloro-2-fluorobenzoyl)-2,5-diazabicyclo[2.2.1]hept-2-yl)methyl)-N-1H-pyrazol-3-ylpyridin-2-amine] | 1200 | 3.6
13 | CC(c1cccc(Nc2cc[nH]n2)n1)N1CCN(C(=O)c2cccc(Cl)c2F)CC1 (stereo not shown) [Example 24, 6-(1-(4-(3-chloro-2-fluorobenzoyl)piperazin-1-yl)ethyl)-N-1H-pyrazol-3-ylpyridin-2-amine] | 26000 | 23
14 | Cc1cc(Nc2cccc(CN3CCN(C(=O)c4cccc(Cl)c4Cl)CC3)n2)n[nH]1 [Example 26, 6-((4-(2,3-dichlorobenzoyl)piperazin-1-yl)methyl)-N-(5-methyl-1H-pyrazol-3-yl)pyridin-2-amine trifluoroacetate] | 450 | 1.1
15 | Cc1cc(Nc2cccc(CN3C[C@@H]4C[C@H]3CN4C(=O)c3cccc(Cl)c3F)n2)n[nH]1 [Example 27, 6-(((1S,4S)-5-(3-chloro-2-fluorobenzoyl)-2,5-diazabicyclo[2.2.1]hept-2-yl)methyl)-N-(5-methyl-1H-pyrazol-3-yl)pyridin-2-amine] | 1700 | 3.3
16 | O=C(c1ccccc1)N1CCN(Cc2cccc(Nc3cc(C4CC4)[nH]n3)n2)CC1 [Example 31, 6-((4-benzoylpiperazin-1-yl)methyl)-N-(5-cyclopropyl-1H-pyrazol-3-yl)pyridin-2-amine] | 760 | 37
17 | O=C(c1cccc(Cl)c1F)N1CCN(Cc2cccc(Nc3ncns3)n2)CC1 [Example 32, 6-((4-(3-chloro-2-fluorobenzoyl)piperazin-1-yl)methyl)-N-1,2,4-thiadiazol-5-ylpyridin-2-amine] | 4800 | 3.7
18 | C[C@@H]1CN(Cc2cccc(Nc3ncns3)n2)CCN1C(=O)c1ccccc1 [Example 33, 6-(((3R)-4-benzoyl-3-methylpiperazin-1-yl)methyl)-N-1,2,4-thiadiazol-5-ylpyridin-2-amine trifluoroacetate] | 3000 | 50
19 | O=C(c1ccccc1)N1CCCN(Cc2cccc(Nc3ncns3)n2)CC1 [Example 35, 6-((4-benzoyl-1,4-diazepan-1-yl)methyl)-N-1,2,4-thiadiazol-5-ylpyridin-2-amine] | 3400 | 31
20 | O=C(c1cccc(C(F)(F)F)c1)N1CCN(Cc2cccc(Nc3ncns3)n2)CC1 [Example 37, 6-((4-(3-(trifluoromethyl)benzoyl)piperazin-1-yl)methyl)-N-1,2,4-thiadiazol-5-ylpyridin-2-amine] | 8800 | 4.9
21 | O=C(c1cccc(Br)c1)N1CCN(Cc2cccc(Nc3ncns3)n2)CC1 [Example 38, 6-((4-(3-bromobenzoyl)piperazin-1-yl)methyl)-N-1,2,4-thiadiazol-5-ylpyridin-2-amine] | 9500 | 9.1
22 | O=C(c1cccc(C(F)F)c1F)N1CCN(Cc2cccc(Nc3ncns3)n2)CC1 [Example 41, 6-((4-(2-fluoro-3-(difluoromethyl)benzoyl)piperazin-1-yl)methyl)-N-1,2,4-thiadiazol-5-ylpyridin-2-amine trifluoroacetate] | 5000 | 2.9
23 | Cc1cnc(Nc2cccc(CN3CCN(C(=O)c4cccc(Cl)c4F)CC3)n2)s1 [Example 42, 6-((4-(3-chloro-2-fluorobenzoyl)piperazin-1-yl)methyl)-N-(5-methyl-thiazol-2-yl)pyridin-2-amine trifluoroacetate] | 530 | 1
